This note sets out measurements from US20230338369A1, “COMBINATION OF A PROTEASOME INHIBITOR AND A HDAC INHIBITOR AND ITS USE FOR THE TREATMENT OF GENETIC DISEASES LINKED TO A PROTEIN CONFORMATIONAL DISORDER” (Centre d'Etude des Cellules Souches (CECS), priority 2019, published 2023).

pEC50: −log10 of the molar value. Where two headings read alike, the source gives them in different places. Peptide text beside a SMILES is read from it. * marks the point of attachment. Cbz = O=C(OCc1ccccc1)*

The test system of one series is R77C-α-SGmCh. Kind of series: SG localization cell-based assay: membrane rescue of R77C-α-SGmCh in immortalized LGMD-R3 patient fibroblasts. Conditions: for effect on R77C-α-SGmCh mutant protein rescue in combination with givinostat: low doses: carfilzomib 10 nM, MG132 100 nM, increasing concentrations of givinostat; for pEC50: read-out: EC50, presence of R77C-α-SGmCh at the membrane. Details: species or system human. On the procedure: Cells were analyzed after 24 hours of treatment.
In order to easily evaluate the membrane localization of the R77C-α-SG mutant in the heterologous condition, a system was generated that allowed the simultaneous identification of the positive cells for the exogenous protein and the quantification of the amount of protein in the cell membrane. A fusion protein was created, consisting of the coding sequence for human R77C-α-SGfused with an mCherry (mCh) fluorescent reporter at the C-terminus. A flexible linker was inserted between the two coding sequences to avoid protein interference in protein maturation and folding. The construct, hereafter termed R77C-α-SGmCh, was placed under the transcriptional control of the cytomegalovirus (CMV) promoter and inserted into a lentivirus backbone. Immortalized fibroblasts from a LGMD-R3 patient were used as cellular model because of their absence of endogenous α-SG.

In series [1] the target is T1, chymotrypsin-like activity of the proteasome (Homo sapiens, UniProt P28074).
T1 construct: endogenous in cells; host or cells: immortalized patient fibroblasts overexpressing R77C-α-SGmCh
As to the kind of experiment: Proteasomal activity assay (Proteasome-Glo chymotrypsin-like cell-based assay). Conditions: for chymotrypsin-like activity of the proteasome: increasing concentrations. On the procedure: Fibroblasts were seeded in 384 well plates and treated with tested combinations as indicated for 12 hours. Proteasome-Glo™ or chymotrypsin-like cell-based assay reagents were added according to manufacturer instructions (Promega). Luminescence was read using a CLARIOstar® microplate reader (BMG Labtech).

For series [2], the system named is ubiquitinated proteins, P62, LC3BI/II, acetylated α-tubulin, α-SG. As to the kind of experiment: Immunoblotting of fibroblasts overexpressing R77C-α-SGmCh. Conditions: 24 hours; for ubiquitinated proteins (Western blot): 10 μM in combination with 5 nM BTZ. The series is classed as cell-based, human. On the procedure:
(B) Western Blot analysis of ubiquitinated proteins (top panel), P62 and LC3BI/II (middle panel) and acetylated α-tubulin (bottom panel) expression in fibroblasts overexpressing R77C-α-SGmCh and treated with DMSO 0.1%, BTZ (5 nM or 30 nM), or givinostat (10 μM) in presence or in absence of 5 nM BTZ for 24 hours.
(D) Western Blot analysis of ubiquitinated proteins (middle panel), α-SG (top panel) and acetylated α-tubulin (bottom panel) expression in fibroblasts overexpressing R77C-α-SGmCh and treated with DMSO 0.1%, BTZ (5 nM or 30 nM), or tubacin (10 μM) in presence or in absence of 5 nM BTZ for 24 hours.
Twenty-four hours after seeding, the immortalized fibroblasts expressing R77C-α-SGmCh were incubated with the tested compounds or the carrier. Cells were collected after 24 hours of treatment. Proteins were extracted by cell lysis buffer (NP40 Buffer, Thermo Scientific) and Proteases Inhibitors (Complete PIC, Roche). Proteins were separated using a 3-8% Criterion™ XT tris-acetate protein gel and then transferred to PVDF membrane with a Trans-Blot Turbo Transfert system (Biorad) using the 7 min/25V program. Detection of proteins was performed using standard Odyssey protocol by incubation with the following antibodies: • Ubiquitinated proteins: Merck, 04-263; • acetylated α-tubulin: Sigma, T6793; • P62: Abcam, ab56416; • LC3BI/II: Novus, NB600-1384.

Series [3] has as its system fibroblasts overexpressing R77C-α-SGmCh. Kind of series: Viability test: count of Hoechst stained cells per field. Conditions: increasing concentrations alone or in combination with 5 nM BTZ.
Experimental: For overexpression of mutated α-SG and γ-SG, immortalized fibroblasts were transduced with a lentiviral vector expressing human R77C-α-SGmCh, C283Y-γ-SGmCh or E263K-γ-SGmCh with a multiplicity of infection (MOI) of 20 in the presence of 4 μg/ml of polybrene (Sigma-Aldrich). Cells were seeded on plates coated with 50 μg/ml of collagen I and maintained in a humidified atmosphere of 5% CO2 at 37-C. […] Cells were analyzed after 24 hours of treatment.
After 24 hours of drug treatment, cells were fixed in 4% paraformaldehyde (10 min, room temperature). Immunocytochemistry was performed in a phosphate-buffered saline (PBS) solution supplemented with 1% bovine serum albumin (BSA; Sigma) for blocking (1 hour, room temperature) and with a mouse anti-α-SG (NCL-L-a-SARC, Novocastra, Leica) or anti-γ-SG (NCL-L-g-SARC, Novocastra, Leica) for primary hybridization step (overnight, 4° C.). Cells were stained with a fluorophore-conjugated secondary anti-mouse antibody (Invitrogen; 1 hour, room temperature) and nuclei were visualized with Hoechst 33342 (Invitrogen). SG localization was analyzed with a CellInsight CX7 HCS Platform (Cellomics Inc). […] Pictures were acquired with a 10× objective in high-resolution camera mode and were analyzed using the colocalization bioapplication. The number of cells was monitored by counting Hoechst stained cells per field allowing quantification of the cell viability.
The mark [4] stands for this setting: 10 μM with addition of 5 nM BTZ.
[5] abbreviates: combined treatment with 5 nM BTZ.

`CC(C)C[C@@H](C=O)NC(=O)[C@H](CC(C)C)NC(=O)[C@H](CC(C)C)NC(=O)OCc1ccccc1` [MG132] (Cbz-Leu-Leu-Leu-aldehyde): the “effect on R77C-α-SGmCh mutant protein rescue in combination with givinostat” value in the series on R77C-α-SGmCh is “synergistic effect”.

With `O=C(/C=C/c1cccc(S(=O)(=O)Nc2ccccc2)c1)NO` [belinostat], the “R77C-α-SGmCh membrane rescue (α-SG staining)” value in the series on R77C-α-SGmCh (10 μM alone) was “low effect”; in the series on R77C-α-SGmCh (setting [4]) it was “diffuse α-SG staining suggesting a synergy with BTZ”. The results for the pEC50 with R77C-α-SGmCh (setting [5]) and in the series on R77C-α-SGmCh (treatment alone) were 6.52 and 5.28, respectively. In addition, the “chymotrypsin-like activity of the proteasome” value in series [1] is “no proteasomal inhibition”.

For the molecule `CC(C)C[C@H](NC(=O)[C@H](Cc1ccccc1)NC(=O)c1cnccn1)B(O)O` [bortezomib], the R77C-α-SG degradation rescue entry in the series on R77C-α-SGmCh (5 nM BTZ) was “rescuing partially”. The “R77C-α-SG localization in the plasma membrane” value in the series with R77C-α-SGmCh (30 nM, 24 hours, non-permeabilized condition) is on record as “rescue of R77C-α-SG localization in the plasma membrane”. Moreover, the “inhibition of the proteasome activity” value in series [1] (5 nM BTZ) is on record as “limited inhibition”.

For `CC(C)C[C@H](NC(=O)[C@H](CCc1ccccc1)NC(=O)CN1CCOCC1)C(=O)N[C@@H](Cc1ccccc1)C(=O)N[C@@H](CC(C)C)C(=O)[C@@]1(C)CO1` [carfilzomib], in the series on R77C-α-SGmCh, the “effect on R77C-α-SGmCh mutant protein rescue in combination with givinostat” value is “synergistic effect”.

As to `CCN(CC)Cc1ccc2cc(COC(=O)Nc3ccc(C(=O)NO)cc3)ccc2c1` [givinostat, Givinostat], the “R77C-α-SGmCh membrane rescue (α-SG staining)” value is “low effect” in the series with R77C-α-SGmCh (10 μM alone) and “diffuse α-SG staining suggesting a synergy with BTZ” in the series with R77C-α-SGmCh (setting [4]). Further, the pEC50 is 6.10 with R77C-α-SGmCh (setting [5]) and 5.52 in the series with R77C-α-SGmCh (treatment alone). In series [1], the “chymotrypsin-like activity of the proteasome” value was “no proteasomal inhibition”. Moreover, in series [2] (10 μM alone or in combination with 5 nM BTZ), the “acetylation of α-tubulin (Western blot)” value was “induces the acetylation of α-tubulin”. Besides, the “LC3B-I to LC3B-II conversion and P62 (Western blot)” value in series [2] (10 μM combined with 5 nM BTZ) is listed as “increasing conversion of LC3B-I to LC3B-II with P62 accumulation”. Besides, the “ubiquitinated proteins (Western blot)” value in series [2] is listed as “synergistic accumulation of ubiquitinated proteins”.

As for `O=C(CCCCCCC(=O)Nc1ccc([C@H]2O[C@@H](CSc3nc(-c4ccccc4)c(-c4ccccc4)o3)C[C@@H](c3ccc(CO)cc3)O2)cc1)NO` [tubacin, Tubacin], in the series on R77C-α-SGmCh (in combination with 5 nM BTZ), the “membrane R77C-α-SGmCh expression” value is recorded as “synergistic effect”. For the same molecule, in the series on R77C-α-SGmCh (increasing concentrations, alone), the “membrane R77C-α-SGmCh expression” value is recorded as “induced a dose-response curve”. For the same molecule, in series [2] (10 μM combined with 5 nM BTZ), the “acetylation of α-tubulin (Western blot)” value is recorded as “acetylation of a-tubulin” and the “α-SG protein levels (Western blot)” value is “increased α-SG protein levels”. The “ubiquitinated proteins (Western blot)” value in series [2] is “synergistic accumulation of ubiquitinated proteins”. For the same molecule, the cell toxicity result in series [3] is recorded as “in the same range than givinostat”.
